{"source": "patent US12551479B2", "about": "“Acyl-protein thioesterase inhibitor for the treatment and/or prevention of Huntington's disease” (UNIVERSITÉ GRENOBLE ALPES, priority 2019, dated 2026)", "key": {"StHdh^Q111/Q111 cells": {"tested_on": "StHdh^Q111/Q111 cells", "test": "RUSH system: GPI-SBP-mCherry trafficking from endoplasmic reticulum to Golgi and plasma membrane", "assay_type": "cell-based, mouse", "settings": "StHdh^Q111/Q111 cells treated 1 hour with 10 μM", "description": "The RUSH plasmid (Boncompain et al., 2012) is a bicistronic plasmid (SEQ ID NO: 2) allowing the expression of two parts of the system: the reticulum-specific anchor (KDEL-streptavidin), and the reporter part (GPI-SBP-mCh). The addition of biotin in the extracellular medium (40 μM) induces the unhooking of the reporter part of the anchor, thus allowing to follow the intracellular trafficking in a synchronized way within a cell population from the endoplasmic reticulum.\n(§1) For striatal StHdh cells, acute treatment was performed at 10 μM for 1 hour before and during the acquisition time. For neurons within the microchambers, treatments were started at DIV2 until DIV12 every day at 1 μM in each compartment of the microfluidic device.\nThe inventors used the Retention Using Selective Hooks (RUSH) system to study intracellular dynamics from the ER to the plasma membrane in Huntington's disease condition (FIG. 1A). RUSH allows tracking the synchronous release of a reporter molecule from specific intracellular compartments. In the present experiment, the inventors followed the release of glycosylphosphatidylinositol (GPI)-anchored fluorescence protein mCherry, and fused to streptavidin-binding peptide (SBP) that was retained into the ER compartment by the interaction with a “hook” protein composed of the KDEL motif fused to streptavidin. In the absence of biotin, the GPI-SBP-mCherry localizes at the ER (FIG. 1A). Addition of biotin to the cells expressing GPI-SBP-mCherry and KDEL-streptavidin causes a synchronous release of the GPI-SBP-mCherry reporter from the hook which then migrates to the Golgi apparatus and later to the plasma membrane.\nTo study these dynamics in the context of Huntington's disease, the inventors transfected the GPI-SBP-mCherry-KDEL-streptavidin construct as shown in SEQ ID NO:2 into immortalized striatal cells from Hdh^Q111/Q111 and Hdh^Q7/Q7 mice, referred to as StHdh^Q111/Q111 and StHdh^Q7/Q7 cells respectively. They then monitored GPI-SBP-mCherry trafficking by real-time imaging for 90 minutes. To assess intracellular trafficking dynamics, they quantified the kinetics of appearance and disappearance of mCherry fluorescence in the Golgi apparatus over time (FIGS. 1B and C). Shortly after biotin addition, GPI leaves the ER and moves to the Golgi apparatus. The inventors quantified fluorescence at the Golgi and observed that in StHdh^Q7/Q7 cells, the peak fluorescence was at 16.6 minutes, whereas it was delayed to 23.6 minutes in StHdh^Q111/Q111 cells (FIG. 1B). Their observations indicate a reduced trafficking of GPI from the ER to the Golgi apparatus as well as prolonged retention of GPI in the Golgi as evidenced by a longer period of GPI fluorescence in the Golgi apparatus."}, "[1]": {"tested_on": "WT and Hdh^CAG/+ corticostriatal network", "test": "Synapse density (adjacent SYP and PSD95 spots) in microfluidic corticostriatal network", "assay_type": "cell-based, mouse", "settings": "1 μM daily", "description": "In FIG. 3H, we can see the recording area that was chosen for the assessment of synapse density by quantifying the number of synaptophysin (SYP) spots, a presynaptic marker, and the number of PSD95 spots, a postsynaptic marker. FIG. 3I testifies that in the Hdh^CAG/+ microfluidic network, the number of synapses is decreased in the microfluidic devices.\nas §1\nThe inventors then assessed synapse density by quantifying the number of synaptophysin spots (presynaptic marker, SYP) adjacent to PSD95 spots (postsynaptic marker) within synaptic chamber of the microfluidic device using high-resolution Airyscan confocal microscopy (FIG. 3H). In Hdh^CAG/+ network, the number of synapses is decreased in the microfluidic devices (FIG. 3I). […] However, this was not significant."}, "[2]": {"tested_on": "mouse cortical neuronal cells", "test": "MTT toxicity assay", "assay_type": "cell-based", "description": "Toxicity was assessed using the tetrazolium salt MTT assay. The cortical culture was treated every day as previously described. After treatment, a solution of MTT (Life M6494) was added to the culture medium at 1.2 mM and incubated for 3 hours. The reaction was terminated by adding the solvent solution (4 mM HCl, 0.1% NP40 in isopropanol). The absorbance value was measured at 595 and 690 nm."}, "Hdh^CAG140/+ mice [3]": {"tested_on": "Hdh^CAG140/+ mice", "test": "Open Field test", "assay_type": "in vivo, mouse", "settings": "0.3 mg/kg/day subcutaneous infusion", "description": "(§2) Mice littermates were grouped into mixed treatment groups. Males and females were 6 months of age at the beginning of the treatment. For each specific test, all experimental groups were tested on the same day, during the light phase and between Days 16 and 28 of treatment. Prior to testing, mice were acclimatized to the test room for a period of 30 minutes. Treatments were randomly assigned and behavioral tests were performed 12 days before the end of the delivery of the treatment. […] Mice were excluded from analysis if their performance was calculated as a significant outlier by the Grubb test. One mouse was excluded based on these criteria. Mouse weights were measured prior to the start of treatment and until the end of testing.\nSpontaneous locomotion was measured as the total distance traveled and general anxiety as the number of entries into the internal area. The Open Field test was conducted in a opaque Plexiglas square chamber (50×50 cm) and the internal chamber was defined with a quadrangular shape of 12.50×12.50 cm. The mice were filmed for 60 minutes. The distance traveled and the number of entries into the internal chamber per 5-minute interval were measured using ViewPoint tracking software."}, "Hdh^CAG140/+ mice [4]": {"tested_on": "Hdh^CAG140/+ mice", "test": "Rotarod test", "assay_type": "in vivo, mouse", "settings": "Hdh^CAG/+ mice", "description": "as §2\nThe Rotarod apparatus was used to measure motor coordination and balance. Rotarod test was performed over 6 consecutive days, with 3 days of accelerated rotarod and then 3 days of fixed rotarod. […] The latency and speed at which mice fall off from the rotarod were measured up to 300 sec. For a fixed rotarod, mice were evaluated for 3 trials at 10, 15, and 20 rpm on days 4, 5, and 6, respectively. […] Data are expressed as the average of the 3 trials."}}}
{"compound": "O=C(CN1CCN(C(=O)c2ccco2)CC1)Nc1cc(C(F)(F)F)ccc1Cl", "note": "[ML-348]", "values": [{"measurement": "time after biotin addition for the appearance of the fluorescence peak in the Golgi", "setting": "StHdh^Q111/Q111 cells; without treatment 23.2-23.3 min, StHdh^Q7/Q7 16.6 min", "value": 18.9, "unit": "min"}, {"measurement": "time for fluorescence to leave the Golgi apparatus (retention time in the Golgi)", "setting": "StHdh^Q111/Q111 cells; without treatment 24-25.4 min, wild-type cells 15.1 min", "value": 15.1, "unit": "min"}, {"measurement": "number of synapses (adjacent SYP and PSD95 spots)", "setting": "[1]; Hdh^CAG/+ network", "value": "restored the number of synapses"}, {"measurement": "number of synapses (adjacent SYP and PSD95 spots)", "setting": "[1]; wild-type network, not statistically significant", "value": "slightly reduced synapse connectivity"}, {"measurement": "cell viability (MTT)", "setting": "[2]; 100 nM, 1 μM or 10 μM", "value": "no effect"}, {"measurement": "toxicity (MTT)", "setting": "[2]; 1 μM, for 12 days", "value": "no toxicity"}, {"measurement": "toxicity (MTT)", "setting": "[2]; 100 μM, over 48 hours", "value": "toxic"}, {"measurement": "toxicity (MTT)", "setting": "[2]; wild-type cortical cultures, 1 μM for 10 days", "value": "no toxicity"}, {"measurement": "total distance traveled over 60 minutes (spontaneous locomotion)", "setting": "Hdh^CAG140/+ mice [3]", "value": "no effect"}, {"measurement": "number of entries into the central area over 60 minutes", "setting": "Hdh^CAG140/+ mice [3]; wild-type and Hdh^CAG/+ mice", "value": "no significant effect"}, {"measurement": "average speed achieved on accelerated rotarod", "setting": "Hdh^CAG140/+ mice [4]; 4 to 40 rpm in 600, 300, 120 s, statistically significant in the 300 s condition", "value": "recover motor coordination close to that of wild-type mice"}, {"measurement": "performance on fixed speed rotarod", "setting": "Hdh^CAG140/+ mice [4]; constant speed 10 and 15 rpm", "value": "significantly improved the performances"}]}
